Data as given in patent US20070259439A1, “Determination of antibiotic concentration in bone” (Wyeth, priority 2006, published 2007).
Marks after values point to notes of the source that are not given here.

Legend:
in vivo = conditions: rat
Method: Absolute extraction recovery (AbsER): Bone is a heterogeneous tissue and, unlike with a plasma or urine method validation, the extraction recovery cannot be determined with a drug spiked rat bone QC sample. Therefore, it is necessary to measure a virtual known amount of drug in an incurred rat bone sample to determine the absolute extraction recovery. Using combusted IncRB samples from Group B (rats administered radio labeled ^14C-tigecycline), the amount of labeled drug in bone was measured using a liquid scintillation counter. Four aliquots of IncRB Group B (0.1 grams) were accurately weighed, placed into combustion cones, and allowed to air dry for approximately 3 days. These 4 samples were then oxidized in a Model 307/Oximate 80 sample oxidizer, using Carbosorb® E (7 ml) as a trapping agent and PermalFluor® ET (10 ml) as a scintillant. […] The oxidized samples were counted in a Packard (Perkin Elmer) liquid scintillation counter (LSC) using a toluene standard curve. The ng-equiv/ml concentrations were calculated using specific activity of the dosing solution.
In parallel, five aliquots of IncRB Group B (0.1 gram) were weighed. […]
The absolute extraction recovery was determined using the following equation: […]
[total amount of tigecycline per gram of bone (Group B, determined by LC/MS/MS)]/[total amount of tigecycline per gram of bone (Group B, after combustion as determined by LSC)]×100

[1] = Stability of tigecycline in incurred rat bone and in extracted rat bone sample; type: physicochemical
Method: Stability tests for tigecycline in IncRB reference QC samples or incHB QC samples were conducted in 4 cycles of freeze/thaw for IncRB QC and (3 cycles for IncHB QC of −70° C./22° C.) and in standard bench top (22° C.) stability (4 hours for rat bone and 6 hours for human bone) tests. These tests occurred during sequential extraction from run 1 through run 3. Bench top stability of IncRB reference QC samples (4 hours at room temperature) and incurred human bone sample (6 hours at room temperature), and extracted tigecycline from the IncRB and incurred human reference QC samples in the autosampler at 4° C. were evaluated during the method validation. Autosampler stability of tigecycline in IncRB Group B sample (^14C) was employed as the sample pool because aliquots from IncRB Group A were exhausted from prior testing. Results were plotted as the peak area ratio against time. The 54-hour autosampler stability of incurred human bone was performed by comparing extracted samples injected immediate after extraction (baseline) with the same set of extracted samples re-injected after 54 hours of storage at 4° C., regressed with a standard curve injected immediately after extraction (baseline).

[2] = tested on: Bacillus cereus ATCC 11778; test: Verification of tigecycline microbiological activity (agar well diffusion bioassay); type: cell-based; conditions: for Zone Size, Sample: n = 3
Method: Standard Curve Preparation: A stock solution of tigecycline standard powder, at a concentration of 1000 μg/ml, was prepared in normal saline. Dilutions were prepared in normal saline at a concentration range of 4, 2, 1 and 0.5, 0.25, and 0.125 μg/ml for the preparation of the standard curve. The internal standard (1 μg/ml) was also made from stock solution.
Preparation of Inoculum: An overnight trypticase soy agar blood plate culture (incubated at 30° C.) of Bacillus cereus ATCC 11778 was adjusted to a McFarland 0.5 standard in saline. This suspension yields a bacterial density of approximately 10^8 colony forming units (CFU)/ml.
Preparation of Bioassay Agar Plates: The agar medium was prepared by adding nutrient broth (8 g) and agarose (11 g or […]) per liter of distilled water. After autoclaving at 121° C. for 15 minutes, the medium was allowed to equilibrate to a temperature of 48-50° C. for approximately 1 hour in a water bath. The adjusted B. cereus culture was used to inoculate the cooled agar to a final concentration of 1% (1 ml/100 ml). A volume of 100 ml is added to a Nunc bioassay dish and the agar allowed to solidify at room temperature on a level surface. After cooling, wells were cut into the surface of the agar assay plate using a vacuum well cutting device. The standard curve and unknown samples were placed into the wells (50 μl) in a predetermined array with three wells each per concentration. An internal standard was also tested in triplicate. The pulverized bone samples (and standards for that experiment) were overlaid with 1.1% agarose (50 μl) to maintain contact with the seeded agar. The plates were pre-diffused at 4° C. for two hours, then incubated at 30° C. for 18-24 hours.
Determination of antibiotic concentrations in IncRB samples: The diameters of the zones of inhibition for standards and samples were measured using electronic calipers. The concentrations of the standard curve were then plotted on a semilogarithmic scale vs their corresponding zone diameters to give a standard regression curve. The concentrations of the samples and internal standard were determined by comparing the mean zone size of the samples to the zone sizes of the standard curve and their corresponding concentration. A bioassay data analysis program was used to perform the calculations and plots.

[3] = Bone Extract (non-neutralized) (pH 1.7), IncRB Group B

With CN(C)c1cc(NC(=O)CNC(C)(C)C)c(O)c2c1C[C@H]1C[C@H]3[C@H](N(C)C)C(O)=C(C(N)=O)C(=O)[C@@]3(O)C(O)=C1C2=O [tigecycline, Tigecycline] the concentration at 4 h (in vivo) was 3190 ng/g, the Measured conc. (in vivo; 4 h) was 4137^a ng-equivalent/g of bone and the “Freeze/thaw stability in incurred rat bone” value ([1]; after 4 cycles of freeze/thaw (−70° C./22° C.)) was “stable”. For the same compound, the “Bench top stability in incurred rat bone” value ([1]; after 4 hours at room temperature) was “stable”, the “Stability of extracted tigecycline from IncRB samples” value ([1]; extracted sample at 4° C., no stabilizing agent) was 8.5 h and the “Storage stability in incurred rat bone” value ([1]; stored at −70° C.) was “at least 5 months”. The “Re-injection stability of extracted tigecycline” value ([1]; within 5 hours, no stabilizing agent) was 5 re-injections, the “Zone Size, Sample minus diluent” value [2, 3] was 11.8 mm and the “Zone Size, Sample” value [2, 3] was 33.3 mm. The “Zone Size, Sample minus diluent” value ([2]; Neutralized Bone Extract A (pH 7.0)) was 0 mm, the “Zone Size, Sample” value ([2]; Neutralized Bone Extract A (pH 7.0), neutralization prior to methanol evaporation) was 0 mm and the “Zone Size, Sample minus diluent” value ([2]; Neutralized Bone Extract B (pH 7.0)) was 0 mm. The “Zone Size, Sample” value ([2]; Neutralized Bone Extract B (pH 7.0), neutralization after methanol evaporation) was 0 mm.
